Here are results for three molecules from patent US20230075368A1, “IDENTIFICATION OF AN EGFR-BIN3 PATHWAY THAT ACTIVELY SUPPRESSES INVASION AND REDUCES TUMOR SIZE IN GLIOBLASTOMA” (The United States Govemment as represented by the …, priority 2020, published 2023).

Assay type in all cases: cell-based, human
One assay concerns GBM12 and GBM22 cells. As to the kind of experiment: Single cell migration assay on nanoplates. From the text:
For time-lapse analysis of individual cell movement, nano-ridge constructed of transparent poly(urethane acrylate) (PUA), and fabricated using UV-assisted capillary lithography as described by Kim et al. were used (Kim, D et al. (2009) Mechanosensitivity of fibroblast cell shape and movement to anisotropic substratum topography gradients, Biomaterials 30: 5433-5444; Kim, et al. (2009) Guided Cell Migration on Microtextured Substrates with Variable Local Density and Anisotropy, Adv Funct Mater 19: 1579-1586; Garzon-Muvdi, et al. (2012) Regulation of brain tumor dispersal by NKCC1 through a novel role in focal adhesion regulation, PLoS Biol 10: e1001320). The 24 well NanoSurface plate was purchased from Curi Bio (Seattle, Wash.). Prior to cell seeding, nanoridges surfaces were coated with laminin (3 μg/cm^2, Sigma-Aldrich). Cells were plated at low density (1×10^4 cells/ml) and incubated at 37° C. overnight. The following day, cells were washed with PBS and cultured in DMEM supplemented with 1% FBS and were ready for time-lapse imaging. To measure cell proliferation, 6 hours after plating Histone2B-GFP (C10594, ThermoFisher) was added for nuclear staining overnight. The next day cells were incubated with a mixture of BioTracker® NTP-Transporter Molecule (SCT064, Sigma Aldrich) and Cy3-dUTP (50-190-5459, ThermoFisher) for 10 minutes and then replaced with 1% FBS media containing HB2B2-GFP. For time-lapse imaging, the plate was mounted onto the stage of Andor spinning disk confocal microscope equipped with temperature and CO2 controlling environmental chamber. […] Both fluorescent and bright-field images were taken every 30 minutes for 24 hours using a 10× objective. ImageJ manual track Plugin was used to track the movement of cells frame by frame.
Analysis of individual cellular movement was performed as described elsewhere herein. EGF (50 ng/ml) or vehicle was added 6 hours after the start of time-lapse imaging (n=63 cells). Vehicle was used as a negative control (n=67 cells). Single cell migration speed was calculated using Manual tracking Plugin in ImageJ. […] Cell migration velocity was calculated over a period of 6 hours. […] Analysis of individual cell proliferation was performed as described elsewhere herein. EGF (50 ng/ml) was added 6 hours after the start of time-lapse imaging (n=56). Vehicle was used as a negative control (n=64). Representative static time-lapse Cy3 and H2B-GFP staining images of the same cell before and after addition of EGF are shown in FIG. 25E. […] Each point represents the percentage of Ki positive cells in total 100 cells. […] Cell migration velocity was calculated over a period of 6 hours (n=81). Vehicle was used as a negative control (n=89). […] Scale bar=[…]. Data are represented as media ±5-95% interquartile range (FIG. 25B and FIG. 25K) or mean±SEM (FIG. 25D and FIG. 25M). ***P<0.001, […], n.s. not significant, Mann-Whitney test was used for pair comparison. Two-way ANOVA test was used to analyze Cy3 intensity data in FIG. 25D and FIG. 25M. The results are representative of two independently repeated experiments.
Single-cell migration analysis was performed as described for FIG. 25A above (Vehicle group, n=57, EGF group, n=74). […] Cell migration velocity was calculated over a period of 6 hours. Vehicle was used as a negative control (n=57). […] Analysis of individual cell proliferation was performed as described elsewhere herein. […] Cell migration velocity was calculated over a period of 6 hours. […]

In a further assay the test system is GBM12, GBM6, and GBM22. The assay can be described thus: Bromodeoxyuridine cell proliferation assay. To be noted: 48 hours. As to the method:
Cell proliferation was assessed using the bromodeoxyuridine (BrdU) cell proliferation enzyme-linked immunosorbent assay kit (Abcam, Cambridge, United Kingdom) according to the manufacturer's instructions.

A further assay concerns DOCK7 and BIN3. The assay can be described thus: Co-immunoprecipitation of BIN3 and DOCK7. To be noted: 24 hours. The protocol:
Cells were treated with 50 ng/ml EGF for 24 hours, BIN3 (sc-514396AC, Santa Cruz Biotechnology) or mouse IgG antibodies were incubated with whole cell lysates overnight at 4° C., and the mixtures were then incubated with 40 μl protein A/G slurry beads (Sigma) for 2 hours at 4° C. Beads were washed three times with lysis buffer, and immunoprecipitates were boiled in loading buffer for 5 min, subjected to SDS-PAGE followed by Coomassie stain. Bands were cut from the gel and submitted for Mass Spectrometry Facility, UTSW, Dallas. To identify BIN3 and DOCK7 complexes in PDXs upon EGF treatment, cell lysates were immunoprecipitated with DOCK7 antibody or BIN3 antibody, and analyzed by Western blot using BIN3 antibody.
Referring to FIG. 9A-S, BIN3 reduces invasion by interacting with DOCK7. Heat map of spectral counts of the top BIN3 interacting proteins identified by mass spectrometry in GBM12 treated with EGF (50 ng/ml) is shown in FIG. 9A. Western blot analysis of immunoprecipitated extracts from EGF-treated GBM12, GBM6, and GBM26 is illustrated in FIG. 9B. Cell lysates from cells treated with EGF (50 ng/ml) or control vehicle for 24 hours were immunoprecipitated by DOCK7 antibody, followed by Western blot for BIN3. Western blot analysis of BIN3 antibody immunoprecipitated extracts from GBM12, GBM6, and GBM26 24 hours after EGF or vehicle treatment is illustrated in FIG. 9C. […]

Turning to `C[C@@H]1CCN(C(=O)CC#N)C[C@@H]1N(C)c1ncnc2[nH]ccc12` [tofacitinib], in the assay on GBM12 and GBM22 cells (tofacitinib 1 μM, GBM12), the single cell migration entry is “decreased invasion” and the “single cell proliferation (Cy3)” value is “increased proliferation”. Besides, the “single cell migration and proliferation” value with GBM12 and GBM22 cells (tofacitinib 1 μM, second PDX line (GBM22)) is “confirmed”. Further, the “proliferation (BrdU incorporation)” value in the assay on GBM12, GBM6, and GBM22 (tofacitinib 1 μM) is recorded as “induced proliferation”.

On to “EGF: Recombinant human EGF (AF-100) from Peprotech; EGFR ligand”, for which the “physical association between DOCK7 and BIN3” value with DOCK7 and BIN3 (EGF 50 ng/ml, GBM12, GBM6, GBM26) is given as “significantly induced a physical association”. Also, in the assay with GBM12 and GBM22 cells (EGF 50 ng/ml, GBM12), the single cell migration entry is reported as “significant slowing of migration” and the “single cell proliferation (Cy3 linked marker, Ki-67)” value is on record as “induces proliferation”. In addition, the “proliferation (BrdU incorporation)” value in the assay with GBM12, GBM6, and GBM22 (EGF 50 ng/ml) is listed as “induces proliferation”.

Consider HGF: the ligand for Met, for which, in the assay on DOCK7 and BIN3 (HGF 20 ng/ml, GBM12 and GBM6), the “association between BIN3 and DOCK7” value is reported as “not detected”.
